We go through one compound from patent publication US12390440B2, “Immunomodulating trifluoromethyl-aminal azalides” (Zoetis Services LLC, priority 2020, dated 2025).

SMILES strings stand for the structures.

One test relates to P. multocida. The test can be described thus: Murine P. multocida intranasal challenge study, survival. The settings on record: 32 mg/kg (T03) subcutaneous 18 hours after challenge, 5×10^3 CFU/mouse. The format is in vivo. As for the experimental part: In one murine P. multocida intranasal challenge study, mice were administered tulathromycin (16 mg/kg; T02), M9 (32 mg/kg; T03), or ceftiofur (9 mg/kg; T04) by subcutaneous injection 18 hours after bacterial challenge (5×10^3 CFU/mouse) for lung tissue RNA sequence analysis. Survival at Day 7 was about 80%, 50%, and 90% for T02, T03, and T04, respectively, compared to placebo at 0%. Differential gene expression from total lung tissue RNA sequence analysis indicated at least 226 unique genes were up or down regulated (with significance) for T03. Output from ingenuity pathway analysis of these unique genes predicted major upstream regulators of the involved pathways. Data was analyzed based on the number of genes being modulated in the same direction that were associated with a given upstream regulator. An activation z-score of 2 or greater is considered significant and the direction change is indicated by + (activated) or − (inhibited). The top 5 pathways included: IL-9 signaling, glucocorticoid receptor signaling, prolactin signaling, JAK STAT signaling, and IL-17 signaling. The top 6 upstream regulators (activation z-score) included: lipopolysaccharide (−6.725), TNF (−4.669), IFNγ (−5.759), IL-1ß (−5.947), STAT1 (−2.787), and poly rI:rC-RNA (−5.289). Even though this study was run in the murine model, the top upstream regulators identified as being modulated by M9 include an almost ubiquitous overlap with the pathways identified in the natural disease study as being key mediators in BRD, and therefore is modulating highly relevant pathways in BRD pathobiology.

The next test has as its system BRD. The test can be described thus: Separate study, M9 versus saline control: lung lesions and mortality. The format is in vivo. The note with it: 10 mg/kg.
For the next test, the target named is T1, TLR4 (Bos taurus, UniProt Q9GL65).
T1 sequence (Q9GL65 24-841): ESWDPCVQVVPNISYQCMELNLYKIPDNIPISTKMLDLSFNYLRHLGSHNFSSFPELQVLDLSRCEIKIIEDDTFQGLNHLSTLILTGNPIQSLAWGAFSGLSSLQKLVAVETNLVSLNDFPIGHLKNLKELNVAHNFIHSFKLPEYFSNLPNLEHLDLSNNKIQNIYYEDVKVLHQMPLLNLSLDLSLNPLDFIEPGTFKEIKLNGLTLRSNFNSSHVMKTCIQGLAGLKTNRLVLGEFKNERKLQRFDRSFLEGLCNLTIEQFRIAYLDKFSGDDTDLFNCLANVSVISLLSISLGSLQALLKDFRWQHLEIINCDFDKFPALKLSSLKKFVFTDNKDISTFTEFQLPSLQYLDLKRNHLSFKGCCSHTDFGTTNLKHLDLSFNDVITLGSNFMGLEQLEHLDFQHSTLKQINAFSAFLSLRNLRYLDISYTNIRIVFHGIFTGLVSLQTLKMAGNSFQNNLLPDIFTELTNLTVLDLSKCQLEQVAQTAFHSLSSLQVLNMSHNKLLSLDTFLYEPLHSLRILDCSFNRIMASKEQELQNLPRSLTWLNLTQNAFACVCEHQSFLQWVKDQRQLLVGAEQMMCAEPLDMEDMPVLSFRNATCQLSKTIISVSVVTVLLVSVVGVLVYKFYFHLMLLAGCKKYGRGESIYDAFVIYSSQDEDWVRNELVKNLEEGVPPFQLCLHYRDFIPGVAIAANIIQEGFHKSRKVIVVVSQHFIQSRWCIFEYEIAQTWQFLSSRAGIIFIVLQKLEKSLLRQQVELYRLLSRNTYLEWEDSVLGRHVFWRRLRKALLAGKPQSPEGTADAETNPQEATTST
The test can be described thus: Drug/protein binding partner, SPR: TLR4. The settings on record: PBMCs, Trachea. Details: species or system bovine. As to the method: To further characterize the direct activity of the compounds of the invention, experiments to identify the drug's direct binding host partners(s) were performed with the aim of identifying the potential biological targets. Bovine primary cells (peripheral blood mononuclear cells [PBMCs] and polymorphonuclear cells [PMN/neutrophils]) and tissue (trachea, lung) protein homogenates were mixed with M9 and the macrolide, gamithromicin as a comparator. Tissue interactions were allowed to form using a heterogeneous assembly method (nematic protein organization technique, NPOT; Inoviem Scientific); and traditional western blots to identify native-structure proteins bound to the compound. Mass spectrometry analysis identified eight proteins involved in the interaction with M9 as compared to gamithromycin. The antibacterial macrolide gamithromycin was used as a comparator to differentiate specific binding to M9. These proteins were considered to be either direct binding partners of the drug or closely involved in the drug:target interaction (Table 6).
In order to add further clarity to binding partner identification, surface plasma resonance (SPR) technology was used. […]
KD is the equilibrium dissociation constant that was used to present the drug/target affinity. The identified targets associated with drug were measured by surface plasmon resonance (SPR) to define the KD.

Turning to `CCCNC[C@]1(O)[C@H](C)O[C@@H](O[C@H]2[C@H](C)[C@@H](O[C@@H]3O[C@H](C)C[C@H](NC)[C@H]3O)[C@](C)(O)C[C@@H](C)CN[C@H](C)[C@@H](O)[C@](C)(O)[C@@H](CC)OC(=O)[C@@H]2C)C[C@@]1(C)OC` [Example M9, (2R,3S,4R,5R,8R,10R,11R,12S,13S,14R)-2-ethyl-3,4,10-trihydroxy-13-(((2R,4R,5S,6S)-5-hydroxy-4-methoxy-4,6-dimethyl-5-((propylamino)methyl)-tetrahydro-2H-pyran-2-yl)oxy)-11-(((2S,3R,4S,6R)-3-hydroxy-6-methyl-4-(methylamino)tetrahydro-2H-pyran-2-yl)oxy)-3,5,8,10,12,14-hexamethyl-1-oxa-6-azacyclopentadecan-15-one], the “Survival at Day 7” value in the test with P. multocida is on record as approximately 50%. Moreover, the lung lesions with BRD (versus saline control 31%, p=0.023) is on record as 20%. Besides, the Mortality with BRD (versus saline control 38.9%, p=0.025) is on record as 13%. In addition, at TLR4, the “Interaction KD” value is on record as “Indirect”.
